“Also recorded” adds a separate entry of the source.
Experiments:
RhoA-LARG interaction = biological target: T1, RhoA-LARG interaction (Homo sapiens, UniProt P61586); test: In vitro complex-formation assay of RhoA with LARG DH-PH domain; type: binding; conditions: R-G04 25 µM or 50 µM, S-G04 5 µM or 10 µM; 4 °C, 1 h
T1 construct: 100 ng of purified full-length RhoA
Method: (A) A complex-formation assay tested the inhibitory effects of 20 µM UC-177618 and UC-177619 on RhoA interaction with the LARG DH-PH domain. […] After incubating the compound-RhoA-LARG mixture at 4 °C for 1 h, the beads associated with RhoA were detected with anti-RhoA Western blotting. (B,C) Top view of the predicted structural contacts of UC-177618 and UC-177619 in the binding pocket around the Trp58 residue of RhoA.
(A) A complex-formation assay tested the inhibitory effects of R-G04 and S-G04 on RhoA interaction with the LARG DH-PH domain. MBP-(His)6-tagged LARG (100 ng) was immobilized on Amylose beads. Binding buffer containing full-length RhoA (100 ng) was pre-incubated with different concentrations of R-G04 (25 µM or 50 µM), and S-G04 (5 µM or 10 µM) was added to the beads. After incubating the compound-RhoA-LARG mixture at 4 °C for 1 h, the beads associated with RhoA were detected with anti-RhoA Western blotting. (B) Top view of the predicted structural contacts of R-G04 and S-G04 in the binding pocket around the Trp58 residue of RhoA.
In total, 100 ng of purified MBP (Maltose-binding protein)-(His)6-tagged LARG DH-PH was immobilized on 20 µL of suspended amylose beads (No. E8021S; New England Biolabs Inc., Ipswich, MA, USA) by incubating them in an orbital shaker at 4 °C for 30 min in binding buffer (20 mM Tris·HCl (pH 7.6), 100 mM NaCl, 0.01% Triton X-100, 5mM EDTA, and 5 mM MgCl2). The compounds were added to the binding buffer containing 100 ng of purified full-length RhoA and pre-incubated at 4 °C for 30 min under constant agitation. The Amylose beads bound to LARG were washed thrice with binding buffer to get rid of unbound LARG, and the pre-incubated compound-RhoA mixture was added to the beads. This LARG-compound-RhoA mixture was incubated in the orbital shaker at 4 °C for 1 h. The beads were washed three times, and the amount of RhoA protein co-precipitated with the MBP-fusion-bound beads was detected with anti-RhoA Western blotting.

washed human platelets = test: Thromboxane B2 ELISA assay; type: cell-based; conditions: different concentrations; thrombin stimulation; Indomethacin 20 µM as comparator
Method: (A–D) Washed human platelets were pre-incubated with 10 µM S-G04 or 20 µM R-G04 for 2 min before being stimulated with Arachidonic Acid (AA), U46619, ADP, or Thrombin. The % platelet aggregation was measured 5 min after agonist stimulation. (E) Washed human platelets were pre-incubated with 10 µM S-G04 or 20 µM R-G04 for 2 min and with Chrono-lume® for 30 s at 37 °C before being stimulated with 0.1 U/mL Thrombin. […] TxB2 formation was determined using a TxB2 ELISA kit. The differences among DMSO, R-G04, and S-G04 were analyzed using t-test, and the results are shown as means ± SDs of three independent experiments. (* p < 0.05, ** p < 0.01, *** p < 0.001, and **** p < 0.0001).
The level of TxB2 was measured with an enzyme immunoassay kit (No. 501020; Cayman Chemical, Ann Arbor, MI, USA) as previously described. […] The reactions were terminated by adding 250 µL of HEPES Tyrode’s buffer (pH 7.4) containing 2 mM EDTA. The platelets were centrifuged for 2 min, and the level of TxB2 in the supernatant was measured with the ELISA kit according to the manufacturer’s instructions.

RhoA = test: RhoA-GTP formation, GST-Rhotekin effector pull-down assay in collagen-stimulated platelets; type: cell-based, human; conditions: R-G04 10 µM or 50 µM, S-G04 3 µM or 20 µM; collagen 1 µg/mL
Method: Next, the ability of the six compounds to suppress RhoA activity in platelets was assessed by subjecting them to a GST (Glutathione-S-transferase)-Rhotekin effector pull-down assay. The compounds were incubated with washed human platelets for 2 min before being stimulated with 1 µg/mL collagen. The analogs inhibited the activation of RhoA at the 20 µM concentration (Figure 2A,B). […] After confirming that these analogs could prevent RhoA activation and the phosphorylation of the MLC, their ability to disrupt complex-formation between RhoA and LARG was tested. […] These findings indicate that the active analogs inhibit RhoA activation by disrupting the binding between RhoA and its GEF.
(A,B) Washed human platelets were incubated with collagen (1 µg/mL) for 4 min, and the levels of RhoA-GTP formation were quantified with a GST-Rhotekin effector pull-down assay. The platelets were pre-incubated with 20 µM UC-177618, UC-177619, UC-177628, UC-177629, […], or […] for 2 min before being stimulated with collagen. The addition of ice-cold lysis buffer terminated the reaction. […] Relative amounts of the GTP-bound form of RhoA were quantified with densitometry measurements of total RhoA (T-RhoA) and normalized to untreated platelets. (C,D) The addition of 20 µM of active Rhosin-related compounds to washed human platelets 2 min before stimulation with collagen blocked the phosphorylation of the myosin light chain (p-MLC). The reactions were terminated after 4 min by adding 4x Laemmli sample buffer. The samples were processed for Western blotting and probed for MLC and p-MLC, and phosphorylation was quantified by measuring the densitometry of total MLC (T-MLC). The differences between DMSO- and Rhosin-related compounds were analyzed with t-test, and the results are shown as means ± SDs of three independent experiments. (* p < 0.05, ** p < 0.01, *** p < 0.001, and **** p < 0.0001).
The relative levels of RhoA-GTP in washed human platelets were quantified with effector domains GST-Rhotekin pull-down assays as previously reported. A volume of 250 µL of washed human platelets (2.5 × 10^8/mL) was pre-warmed to 37 °C along with the compounds or DMSO (0.1%) for 2 min before being stimulated with collagen (1 µg/mL). The reactions were terminated 4 min after collagen stimulation by adding ice-cold lysis buffer (20 mM Tris·HCl (pH 7.6), 100 mM NaCl, 1% Triton X-100, 0.2% Sodium Deoxycholate, 10 mM MgCl2, 1 mM dithiothreitol, 1x protease inhibitor cocktail, and 1x phosphatase inhibitor cocktail). The supernatants were collected and subjected to the GST-Rhotekin pull-down assay. The total cell lysates were also blotted in parallel. GTP-bound RhoA was quantitatively detected with Western blotting using an anti-RhoA antibody. The relative amounts of RhoA were quantified with densitometry measurements and normalized to the untreated platelets.

T1 sequence (P61586 whole entry, the tested form may be a part): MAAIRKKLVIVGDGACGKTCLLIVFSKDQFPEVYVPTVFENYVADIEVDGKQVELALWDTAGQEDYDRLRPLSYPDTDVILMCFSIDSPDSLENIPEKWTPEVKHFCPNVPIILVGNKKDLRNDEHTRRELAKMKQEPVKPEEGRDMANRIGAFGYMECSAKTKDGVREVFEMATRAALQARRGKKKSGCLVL

| SMILES | LARG binding to RhoA (RhoA-LARG interaction) | generation of TxA2, measured as thromboxane B2 (TxB2) (washed human platelets) | RhoA-GTP formation (RhoA) |
| --- | --- | --- | --- |
| N[C@@H](Cc1c[nH]c2ccccc12)C(=O)N/N=C/c1ccc2nccnc2c1 [S-G04] | dose-dependently suppressing LARG binding to RhoA | dose-dependent inhibition; also recorded: comparable to that of Indomethacin | inhibited RhoA-GTP formation in a concentration-dependent manner |
| N[C@H](Cc1c[nH]c2ccccc12)C(=O)N/N=C/c1ccc2nccnc2c1 [R-G04] | dose-dependently suppressing LARG binding to RhoA | dose-dependent inhibition | inhibited RhoA-GTP formation in a concentration-dependent manner |
